Results published in the supplement of paper PMC10307832.

What was measured:
Test in all cases: relative viability (nuclei count vs DMSO), 5 days (fraction); higher = more cells survive
Ponatinib = compound: Cc1ccc(C(=O)Nc2ccc(CN3CCN(C)CC3)c(C(F)(F)F)c2)cc1C#Cc1cnc2cccnn12 [Ponatinib]
Outline: (§1)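 After an overnight hold at 37 °C, lung cancer cell lines in 1536-well plates were pinned with five library-drug doses (not always all listed), each √10 from the next, on vehicle-anchored plates. The cells stayed 5 days without fresh medium, then a one-step fix, permeabilisation and Hoechst stain preceded 4× imaging and MetaXpress nuclear counts. A plate passed only with control CV under 25% and at least one doubling. Viability is the median, over plates, of treated-well nuclei relative to vehicle-well nuclei.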

Pazopanib = compound: Cc1ccc(Nc2nccc(N(C)c3ccc4c(C)n(C)nc4c3)n2)cc1S(N)(=O)=O [Pazopanib]
Outline: as §1

Ponatinib + Trametinib = compound: Cc1ccc(C(=O)Nc2ccc(CN3CCN(C)CC3)c(C(F)(F)F)c2)cc1C#Cc1cnc2cccnn12 [Ponatinib] + CC(=O)Nc1cccc(-n2c(=O)n(C3CC3)c(=O)c3c(Nc4ccc(I)cc4F)n(C)c(=O)c(C)c32)c1 [Trametinib] (partner 0.02 µM)
Outline: (§2)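 Relative viability equals treated-well nuclei counts divided by vehicle-well nuclei counts. Counts came from 4× images of lung cancer cell lines grown in 1536-well plates for 5 days after pin-tool dosing on the day after seeding. Dosing used one drug alone or a fixed anchor-drug dose plus five library-drug doses (not always all listed) in √10 steps, and values are medians of duplicate plates.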

Pazopanib + Navitoclax = compound: Cc1ccc(Nc2nccc(N(C)c3ccc4c(C)n(C)nc4c3)n2)cc1S(N)(=O)=O [Pazopanib] + CC1(C)CCC(c2ccc(Cl)cc2)=C(CN2CCN(c3ccc(C(=O)NS(=O)(=O)c4ccc(N[C@H](CCN5CCOCC5)CSc5ccccc5)c(S(=O)(=O)C(F)(F)F)c4)cc3)CC2)C1 [Navitoclax] (partner 0.5 µM)
Outline: as §2

Cell Line	relative viability (Ponatinib; 0.002 µM)	relative viability (Ponatinib; 0.006325 µM)	relative viability (Ponatinib; 0.06325 µM)	relative viability (Ponatinib; 0.2 µM)	relative viability (Pazopanib; 0.01 µM)	relative viability (Pazopanib; 0.03162 µM)	relative viability (Pazopanib; 0.1 µM)	relative viability (Pazopanib; 0.3162 µM)	relative viability (Pazopanib; 1 µM)	relative viability (Ponatinib + Trametinib; first compound 0.002 µM)	relative viability (Ponatinib + Trametinib; first compound 0.006325 µM)	relative viability (Ponatinib + Trametinib; first compound 0.06325 µM)	relative viability (Ponatinib + Trametinib; first compound 0.2 µM)	relative viability (Pazopanib + Navitoclax; first compound 0.01 µM)	relative viability (Pazopanib + Navitoclax; first compound 0.03162 µM)	relative viability (Pazopanib + Navitoclax; first compound 0.1 µM)	relative viability (Pazopanib + Navitoclax; first compound 0.3162 µM)	relative viability (Pazopanib + Navitoclax; first compound 1 µM)
NCI-H1975	0.831	0.918	0.948	0.844	0.889	0.895	0.993	0.944	1.03	0.367	0.445	0.469	0.294	1	1.2	1.17	1.12	1.02
NCI-H2170	0.927	0.969	1	0.917	0.828	1.02	0.948	0.899	0.995	0.865	0.962	0.899	0.867	0.519	0.586	0.752	0.542	0.631
LU99A	0.94	1.02	0.943	0.939	0.759	0.909	1.01	1.03	1.01	0.476	0.554	0.342	0.305	0.697	0.819	0.769	0.773	0.843
NCI-H2405	0.935	1.06	1.02	0.847	0.895	0.998	1.01	1.04	1.1	0.557	0.611	0.435	0.342	0.903	0.985	1.05	1.27	1.07
NCI-H2009	0.95	0.944	1.07	1.03	0.989	1.04	0.937	1.02	0.891	0.284	0.253	0.189	0.165	1.19	1.18	1.2	1.11	0.979
HCC-15	0.972	1.06	1.1	1.02	0.837	0.987	1.02	1.06	1.03	0.348	0.381	0.446	0.338	0.698	0.706	0.743	0.713	0.815
HCC-44	0.908	0.929	0.942	0.958	0.886	0.929	0.998	0.983	1.02	1	1.02	1.05	1.06	0.87	0.896	1	0.82	0.984
COR-L23	0.887	0.941	0.97	0.876	1.13	1	1.04	1.09	1.04	0.526	0.593	0.372	0.387	0.971	1.08	0.985	0.978	1.06
HCC-78	0.8	0.994	1.03	0.874	0.743	1	0.889	0.933	0.936	0.684	0.673	0.808	0.638	0.493	0.813	0.796	0.828	0.694
NCI-H838	0.95	1.01	0.994	0.793	0.918	1.01	0.996	1.05	1.14	0.461	0.554	0.529	0.424	1.1	1.22	1.21	1.24	1.26
NCI-H2087	0.877	0.782	0.928	0.974	1.02	1.06	1.07	1.09	0.908	0.217	0.201	0.131	0.153	1.03	1.04	1.1	1.01	0.8
BEN	0.765	0.967	1.01	0.847	0.729	1.1	0.929	1.05	1.05	1.02	0.967	0.982	0.768	0.0655	0.0679	0.0737	0.0724	0.0586
EKVX	0.899	1.06	1.24	1.06	0.902	0.989	0.964	1.06	1.03	0.328	0.338	0.424	0.362	0.834	0.926	0.97	0.921	1.02
LXF-289	0.948	0.998	0.984	0.969	1.07	0.989	1.04	0.997	1	0.651	0.649	0.633	0.641	0.994	1.03	0.95	0.934	0.991
NCI-H1650	0.915	1.05	1.22	0.891	1.05	1.02	0.954	1.12	1.16	0.583	0.543	0.801	0.474	1.28	1.26	1.44	1.18	1.04
NCI-H2085	1.01	0.997	1.19	1.06	0.973	1.04	0.966	1.01	1.02	0.482	0.557	0.675	0.568	1.18	1.22	1.26	1.15	1.31
NCI-H1944	0.828	1.01	0.957	1	0.739	0.965	1.06	0.981	1.01	0.426	0.465	0.49	0.409	0.942	0.997	1.09	1.05	1.08
